Starred links: 1 amine or outer side, 2 acyl side, 3 side chain; linkers in the order of their positions; H or OH if unused. Non-standard residues stand in square brackets, D forms with d. Groups on a side chain read outwards from the residue. No end group written: not given here. *: point of attachment. γGlu = O=C(O)[C@H](CCC(=O)[*:2])N[*:1]; Palmitoyl = CCCCCCCCCCCCCCCC(=O)*; Aib = CC(C)(N)C(=O)O
Legend:
insulin receptor (IR-B) = biological target: T1, insulin receptor (IR-B) (Homo sapiens, UniProt P06213); assay: In vitro activity at insulin B receptor (IR-B); assay type: cell-based; settings: for EC50: Table 4, read-out: Normalized IR-B EC50 (nM) MEAN
T1 construct: expressed in transfected cells
Procedure: Color development was stopped 5 min later by adding 0.05 ml 1 N HCl. Absorbance at 450 nm was measured on Titertek Multiscan MCC340 (ThermoFisher, Pittsburgh, Pa.). […] Structures associated with the abbreviated lipidated groups designated in Table 4 are as follows: […]

GLP-1 receptor = biological target: T2, GLP-1 receptor (Homo sapiens, UniProt P43220); assay: cAMP synthesis luciferase reporter assay in HEK293 cells, GLP-1 receptor; assay type: cell-based; settings: for EC50: read-out: Normalized GLP-1 EC50 (nM) MEAN, Table 4
T2 construct: expressed in transfected cells; host or cells: HEK293
Text: (§1) Structures associated with the abbreviated lipidated groups designated in Table 4 are as follows: […]

GIP receptor [1] = biological target: T3, GIP receptor (Homo sapiens, UniProt P48546); assay: cAMP synthesis luciferase reporter assay in HEK293 cells, GIP receptor; assay type: cell-based; settings: read-out: Normalized GIP EC50 (nM) MEAN; Table 4
T3 construct: expressed in transfected cells; host or cells: HEK293
T3 sequence (P48546 22-466): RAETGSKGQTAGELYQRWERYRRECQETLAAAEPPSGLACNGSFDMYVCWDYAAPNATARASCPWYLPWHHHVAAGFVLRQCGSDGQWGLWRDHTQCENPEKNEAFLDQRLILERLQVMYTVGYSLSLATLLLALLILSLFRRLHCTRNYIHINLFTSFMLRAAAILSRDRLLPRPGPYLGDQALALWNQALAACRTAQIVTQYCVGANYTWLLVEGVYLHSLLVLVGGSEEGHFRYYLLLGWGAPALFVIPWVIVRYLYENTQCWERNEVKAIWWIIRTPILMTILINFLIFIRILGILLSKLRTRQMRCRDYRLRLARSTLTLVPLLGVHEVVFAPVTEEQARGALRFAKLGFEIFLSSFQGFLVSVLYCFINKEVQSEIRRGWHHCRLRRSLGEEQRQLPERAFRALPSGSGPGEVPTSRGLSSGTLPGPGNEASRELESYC
Text: as §1

diabetic mice [2] = assay: Blood glucose, food intake and body weight in diabetic mice; assay type: in vivo; settings: four days; for weight loss: daily or twice a day, FIG. 14B
diabetic mice [3] = assay: as above; assay type: in vivo
Procedure: (§2) Six- to eight-week-old male C57BL/6 mice were maintained at 23° C., constant humidity, and a 12-h light-dark cycle. The acute in vivo effects of select peptides were evaluated by subcutaneously injecting peptides solubilized in physiologically buffered saline or a vehicle control to normal or diabetic mice. Blood glucose was measured at various time points through the course of a 24 hr period following administration of the peptides. Each group of mice contained 8 animals per group. The average body weight was ˜25 g. Mice were made diabetic by administration of streptozotocin.
Repeat daily subcutaneous administration of the peptides or vehicle control was administered to the mice for periods of five days to two weeks. The obese mice were given a diabetogenic diet Mice had free access to water and were fed ad libitum with a high fat diet (HFD) comprising 58% of calories from fat (D12331; Research Diets, New Brunswick, N.J.) and each group of mice contained 8 animals per group. The average body weight was ˜50 g and the mice were ˜6 months old males. Body weight and food intake were measured on the days that peptide or vehicle control was administered to the mice. Fasting blood glucose levels were measured repeatedly.

normal mice = assay: Blood glucose after single administration to normal mice; assay type: in vivo; settings: 50 nmoles/kg, FIG. 8
Procedure: as §2

[4] = particularly at physiological pH; cited from earlier work
GIP receptor [5] = biological target: T3, GIP receptor; settings: general statement; cited from earlier work
[6] = test system: GPL-1 receptor knock out mice; assay: Glucose tolerance test and food intake in GLP-1 receptor knock out mice; assay type: in vivo; settings: GLP-1 knock out mice; 3 nmol/kg; FIG. 28
Text: FIG. 26 is a graph of a glucose tolerance test conducted on wild type mice (solid lines) and on GPL-1 receptor knock out mice (dashed lines).

[7] = Dose titration on food intake and blood glucose (FIGS. 20-25); assay type: in vivo
[8] = biological target: insulin subtype A receptor (Homo sapiens, UniProt P06213); assay: In vitro activity at insulin subtype A receptor; assay type: cell-based; settings: FIG. 1A
physchem = settings: buffer
Procedure: The rate of cleavage was determined for the respective propeptides. The concentrations of the propeptides and the model parent peptide were determined by their respective peak areas. […] The slope of this plot provides the rate constant ‘k’.

T2 sequence (P43220 24-463, species assumed): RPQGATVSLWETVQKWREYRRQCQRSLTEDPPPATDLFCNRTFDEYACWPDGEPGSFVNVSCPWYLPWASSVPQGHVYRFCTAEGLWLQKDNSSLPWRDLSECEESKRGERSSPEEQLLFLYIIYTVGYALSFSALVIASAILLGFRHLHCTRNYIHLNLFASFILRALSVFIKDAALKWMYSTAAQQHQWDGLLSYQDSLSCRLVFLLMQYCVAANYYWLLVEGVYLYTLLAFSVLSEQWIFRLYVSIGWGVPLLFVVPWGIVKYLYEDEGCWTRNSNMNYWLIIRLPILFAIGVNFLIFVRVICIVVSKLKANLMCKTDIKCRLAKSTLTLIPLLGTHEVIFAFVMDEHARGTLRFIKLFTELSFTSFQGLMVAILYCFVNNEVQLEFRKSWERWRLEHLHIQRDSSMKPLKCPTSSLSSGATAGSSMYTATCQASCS

## CIU-004: XEGTFTSDVSSYLEEQAAKEFIAWLVKGGPSSGAPPPS (SEQ ID NO: 1945); C(S-S)—CH2CH2CH2-B^1 Insulin (conjugate chemistry not built)
Insulin receptor (IR-B)
  EC50: 0.59 nM
GLP-1 receptor
  EC50: 7.96 nM

## CIU-055: HXEGTFTSDVSSYLEEQAAREFIAWLVRGGPSSGAPPPSK(20K PEG) (SEQ ID NO: 1974); C(S-S)—CH2CH2CH2-B^1 DesDi
Insulin receptor (IR-B)
  EC50: 1140 nM

## CIU-146: YXEGTFTSDU2SIYLDKQAAXEFVNWLLAGGPSSGAPPPS (SEQ ID NO: 2014); C(S-S)—CH2CH2CH2-B^1Desdi (Y[Aib]EGTFTSDKSIYLDKQAA[Aib]EFVNWLLAGGPSSGAPPPS; not fully specified (residue 10, C-terminus); also: disulfide-linked propyl to B1 of desdi insulin, site not given here)
GIP receptor [1]
  EC50: 0.0014 nM

## SEQ ID NO: 128: glucagon analog substituting the native glutamine at position 3 with glutamic acid
GLP-1 receptor; versus glucagon receptor
  selectivity for the GLP-1 receptor: tenfold

## CIU-26: pegylated native insulin (20 K PEG linked to the B29 side chain) [reference compound]
Diabetic mice [2]
  weight loss: failed to induce weight loss
Diabetic mice [3]; FIG. 13
  food intake: does not
Diabetic mice [3]; FIG. 16C
  food intake: did not
Diabetic mice [3]; seven days, FIG. 17C
  food intake: does not
Diabetic mice [3]; seven days, FIG. 17D
  body weight: not

## IUB-48: GLP-1 agonist, HXEGTFTSDVSSYLEEQAAKEFIAWLVKGGPSSGAPPPS (SEQ ID NO: 1932) (H[Aib]EGTFTSDVSSYLEEQAAKEFIAWLVKGGPSSGAPPPS)
Normal mice
  blood glucose levels: about 60 mg/dL

## Native glucagon: peptide consisting of the sequence of SEQ ID NO: 701
[4]
  solubility in aqueous solution: poor solubility in aqueous solution
GIP receptor [5]
  activation of the GIP receptor: does not activate the GIP receptor

## CIU-093: XEGTFTSDUSIYLDKQAAXEFVNWLLAGGPSSGAPPPS (SEQ ID NO: 1996); C(S-S)—CH2CH2CH2-B^1 Insulin
[6]
  food intake: no reduction in food intake
[7]; FIG. 22
  food intake: does not suppress food intake
[7]; FIG. 25
  blood glucose: a much higher dosage is required to get the same glucose lowering

## CIU-123: HXEGTFTSDUSIYLDKQAAXEFVNWLLAGGPSSGAPPPS (SEQ ID NO: 2013); C(S-S)—CH2CH2CH2-B^1Desdi (H[Aib]EGTFTSDK([γGlu-Palmitoyl])SIYLDKQAA[Aib]EFVNWLLAGGPSSGAPPPS; also: disulfide-linked propyl to B1 of desdi insulin, site not given here)
GIP receptor [1]
  EC50: 0.0036 nM
GLP-1 receptor
  EC50: 0.0032 nM

## GLP-DP8: GLP-1/insulin fusion, SEQ ID NO: 700; GLP-1 agonist peptide fused to the N-terminus of a single chain insulin analog (HAEGTFTSDVSSYLEEQAAREFIAWLVRGRG; GLP-1 analog)
Insulin receptor (IR-B); FIG. 1B
  potency at the insulin B receptor: about 9.9 nanomoles
[8]
  potency at the A receptor: about 2.07 nanomoles

## C[C@@H](O)[C@H](NC(=O)CNC(=O)[C@H](CCCNC(=N)N)NC(=O)[C@H](CO)NC(=O)[C@H](Cc1c[nH]cn1)NC(=O)[C@H]1CCCN1C(=O)[C@@H]1CCCN1)C(=O)N[C@@H](Cc1ccccc1)C(N)=O [Table 3 no. 12: P, d-P, H-SRGTF-NH2]
physchem
  t1/2: No cleavage

## CIU-013: HXEGTFTSDVSSYLEEQAAKEFIAWLVKGGPSSGAPPPSGU (SEQ ID NO: 1954); C(S-S)—CH2CH2CH2-B^1 Insulin
Diabetic mice [2]; FIG. 14C
  food intake: suppresses food intake relative to the administration of the pegylated insulin analog
Diabetic mice [2]
  weight loss: produced significant weight loss
Diabetic mice [3]; 5, 15 or 20 nmoles/kg, FIG. 11B
  lowering blood glucose: all doses of the compound are effective in lowering blood glucose
Diabetic mice [3]; FIG. 13
  food intake: suppressing food intake
Diabetic mice [3]; FIG. 15B
  blood glucose levels and duration of action: demonstrate activity in reducing blood glucose levels and demonstrate an extended duration of action relative to native insulin
Diabetic mice [3]; daily or 2× a day, one fifth the dosage of the pegylated insulin, FIG. 14D
  blood glucose: would appear to not be as effective as insulin
Diabetic mice [3]; second administration at 6 hours, 10 nmole/kg(×2), FIG. 12B
  24 hour blood glucose: about 100 mg/dL

## SPHSRGTF-NH2 [Table 3 no. 7: S, P, H-SRGTF-NH2]
physchem
  t1/2: No cleavage

— patent US10232020B2, “Incretin-insulin conjugates” (priority 2014, dated 2019)
